Assays:
[1] = molecular target: A-Raf kinase (SEQ. ID No: 1) (Homo sapiens (Human), UniProt P10398, Y301D/Y302D); test: Biochemical Assay for A-Raf (1); details: Table J, assay version (1); read-out: ARAF (1) IC50
How it was run: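 IC50 values were derived by four-parameter sigmoidal fitting of percent inhibition, calculated from reaction rates over the 4–5 h window. Absorbance at 340 nm was tracked for 6 h at 30 °C via coupled PK/LDH NADH depletion. Conditions: 1 mM ATP, 30.1 nM MEK substrate, 5.55 nM A-Raf (Y301D/Y302D), Tris pH 7.5, 1% DMSO.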

[2] = molecular target: B-Raf (V600E) (SEQ. ID NO: 4) kinase (Homo sapiens (Human), UniProt P15056, V600E); test: Biochemical Assay for B-Raf (V600E) (1); details: Table J, BRAF V600E, assay version (1); read-out: BRAF VE (1) IC50
How it was run: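 Serially diluted compounds tested against 0.03 nM enzyme with 30.1 nM MEK substrate and 1 mM ATP (Tris pH 7.5, 15 mM MgCl2), ATP use coupled to NADH loss via PK/LDH. A340 monitored continuously 6 h, 30 °C; IC50 fitted (four-parameter) from the 3–4 h rate versus no-compound and known-inhibitor controls.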

Miapaca-2 cells [3] = test: MiaPaca-2 Cell Proliferation Assay (1); type: cell-based; details: Homo sapiens, MIA PaCa-2, single agent, read-out: MiaPaca2 (1) IC50
How it was run: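 Resazurin was added after compound exposure and incubated 5-6 h, then fluorescence read at 540 nm excitation and 600 nm emission to give IC50.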

Miapaca-2 cells [4] = test: MiaPaca-2 Combination Cell proliferation Assay (1) with cobimetinib; type: cell-based; details: MiaPaca-2 cell proliferation, read-out: MiaPaca-2 Combo (1) IC50
Method: MiaPaca-2 Combination Cell proliferation Assay (1)
Miapaca-2 cells (catalog #CRL-1420) are obtained from the American Type Culture Collect (ATCC, Manassas, VA). Briefly, cells were grown in DMEM supplemented with 10% characterized fetal bovine serum (Invitrogen, Carlsbad, CA), 2.5% New Zealand sourced horse serum and 1% Penicillin/Streptomycin/L-Glutamine at 37° C., 5% CO2, and 95% humidity. Cells are expanded until reaching 70-95% confluency at which point they are subcultured or harvested for assay use. A serial dilution of test compound was dispensed into multiple 96-well black clear bottom plates in triplicate. A serial dilution of complete growth medium containing cobimetinib was prepared at twice the final concentration and 100 μL was dispensed across the test compound titration in triplicate. Three thousand cells are added per well in 100 μL complete growth medium in each 96-well plate. Plates are incubated for 67-72 hours at 37° C., 5% CO2, and 95% humidity. At the end of the incubation, 40 μL of a 440 μM solution of resazurin (Sigma, St. Louis, MO) in PBS is added to each well of the plate and plates are incubated for an additional 5-7 hours at 37° C., 5% CO2, and 95% humidity. Plates are read on a Synergy2 or equivalent reader (Biotek, Winooski VT) using an excitation of 540 nm and an emission of 600 nm. Drug synergy was assessed via BLISS analysis in the Combenefit software (Cancer Research UK Cambridge Institute, Cambridge, UK). Data is analyzed using Prism software (Graphpad, San Diego, CA) to calculate IC50 values. Shifts in test compound IC50 values are reported from top-constrained combination therapy curves.

B-Raf (V600E) (SEQ. ID NO: 4) kinase, sequence (P15056 416-766 V600E): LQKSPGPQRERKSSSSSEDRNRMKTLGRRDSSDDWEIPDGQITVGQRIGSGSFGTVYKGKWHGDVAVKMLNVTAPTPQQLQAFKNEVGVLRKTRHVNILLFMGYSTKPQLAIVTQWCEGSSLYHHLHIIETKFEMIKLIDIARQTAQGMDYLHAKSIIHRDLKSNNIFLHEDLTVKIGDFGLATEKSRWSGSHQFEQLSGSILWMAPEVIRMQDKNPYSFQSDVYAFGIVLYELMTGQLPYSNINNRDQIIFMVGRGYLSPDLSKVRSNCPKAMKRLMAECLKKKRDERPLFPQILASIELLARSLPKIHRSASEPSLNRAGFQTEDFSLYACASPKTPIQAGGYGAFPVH
A-Raf kinase (SEQ. ID No: 1), sequence (P10398 other isoform, or with tags, fused parts or gaps Y301D (already in the parent)/Y302D (already in the parent)): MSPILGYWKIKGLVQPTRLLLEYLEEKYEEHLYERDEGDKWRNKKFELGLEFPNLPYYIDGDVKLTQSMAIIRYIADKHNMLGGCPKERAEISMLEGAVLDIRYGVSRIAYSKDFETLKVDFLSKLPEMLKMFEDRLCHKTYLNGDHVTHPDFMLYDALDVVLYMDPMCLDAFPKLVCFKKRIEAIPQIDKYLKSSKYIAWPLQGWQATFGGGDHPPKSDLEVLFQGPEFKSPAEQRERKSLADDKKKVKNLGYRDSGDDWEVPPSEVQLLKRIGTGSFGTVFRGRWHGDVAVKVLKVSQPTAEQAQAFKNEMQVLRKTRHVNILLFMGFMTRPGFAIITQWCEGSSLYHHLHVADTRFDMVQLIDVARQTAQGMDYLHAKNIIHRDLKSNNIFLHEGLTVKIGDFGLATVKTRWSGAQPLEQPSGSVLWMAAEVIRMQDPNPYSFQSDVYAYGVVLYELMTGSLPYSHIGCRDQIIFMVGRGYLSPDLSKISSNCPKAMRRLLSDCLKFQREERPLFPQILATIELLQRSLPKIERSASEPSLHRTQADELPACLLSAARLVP

## Cc1ccc(NC(=O)c2ccnc(C3CC3)c2)cc1-c1cncc(-c2ccnc(NC(=O)C3CC3)c2)n1 [Example 184]
[1]
  IC50: 100 to 500 nM
[2]
  IC50: ≤ 100 nM
Miapaca-2 cells [3]
  IC50: 1000 to 10000 nM
Miapaca-2 cells [4]
  IC50: ≤ 100 nM

Source: US12319655B2, “RAF kinase inhibitors and methods of use thereof” (Deciphera Pharmaceuticals, LLC, priority 2021, dated 2025)
